# Laboratory results published in PMC8876959, “Comparative Evaluation of Radiochemical and Biological Properties of ^131I- and [^99mTc]Tc(CO)3-Labeled RGD Analogues Planned to Interact with the αvβ3 Integrin Expressed in Glioblastoma” (Pharmaceuticals, 2022).
# Values joined by “and” are separate entries in the source; they are usually repeats but may differ in a detail not shown here. Equal entries are not always repeated.
# Experiments:
# C6 cells = assay: In vitro specific binding to C6 cells (block with excess non-labeled peptide); format: cell-based, rat; conditions: 4 h
# Description: The specific binding of the radiopeptides to C6 cells was evaluated in 12-well adherent plates, containing 2.0 × 10^5 cells per well. For the specific binding study (unblock), supplemented DMEM-F12 medium containing 1.66 nmol of the [^131I]I-GRGDYV or 8.88 nmol of the [^99mTc]Tc(CO) 3-GRGDHV was added in the wells. On the other hand, for the non-specific binding study (block), an excess of 1000× of the respective non-radiolabeled peptide (competitor) was added to the supplemented DMEM-F12 medium containing the radiopeptide in each well. In both cases, the plates were incubated at 37 °C in a humidified atmosphere containing 5% CO2 for 4 h and then, the supernatant was removed. Each well was washed with PBS, which was joined to the respective supernatant. Finally, the cells were removed by trypsinization and the contents were placed in microtubes. Each well was washed again with PBS, which was joined to the respective trypsinized cells. Cells and supernatants were counted in the above-mentioned automatic gamma counter.
# serum proteins = assay: Serum protein binding (TCA precipitation); format: in vitro ADME; conditions: 25 µL radiopeptide in 175 µL serum, 37 °C, 1 h; 10% TCA precipitation; gamma counter; n = 6
# Description: Radiopeptides (25 μL) were added to 175 µL of serum (n = 6) and incubated at 37 °C for 1 h. After, 1 mL of 10% trichloroacetic acid (TCA) was added for the precipitation of proteins. The mixture was vortexed for 1 min and centrifuged at 1677× g for 10 min. This process was repeated three times. Both the supernatant’s and pellet’s radioactivity were measured in an automatic Wizard 3 2480 gamma counter (Perkin Elmer; Norwalk, CT, USA).
# [1] = Ex vivo biodistribution in glioblastoma allograft tumor-bearing (model) rats; set-up: species or system rat; conditions: for Ex vivo biodistribution, Blood / Ex vivo biodistribution, Brain / Ex vivo biodistribution, Heart / Ex vivo biodistribution, Kidneys / Ex vivo biodistribution, Liver / Ex vivo biodistribution, Lungs / Ex vivo biodistribution, Spleen / Ex vivo biodistribution, Stomach: model rats, gamma counter, mean ± SEM, n = 3
# Description: (§1) Adult male Sprague Dawley rats (280–320 g) were maintained under controlled environmental conditions (12 h light-dark cycle; constant temperature 21 ± 2 °C), with free access to water and food. Tumorigenic glioblastoma cells were implanted in the right frontal cortex, following specific coordinates (referred to bregma): anteroposterior = 1.0 mm; lateral = 3.0 mm; depth = 5.0 mm. An aliquot of culture medium (10 µL) containing 1 × 10^6 C6 cells in suspension was injected slowly (1 µL/min) using a Hamilton syringe positioned on a stereotaxic surgery frame. In the control group, only the culture medium, without cells, was injected. An interval of 20 days after cell inoculation was allowed for tumor development.
# The ex vivo biodistribution of each radiolabeled peptide (4 MBq; 0.2 mL) was evaluated at 15, 60, and 240 min after IV injection in control and tumor-bearing animals (n = 3 per group, per time point). The molar activities in this study were 0.68 and 16.2 MBq/nmol for the iodine and tricarbonyl-labeled peptides, respectively. Animals were deeply anesthetized and sacrificed at the corresponding biodistribution time point. Brain, spleen, heart, stomach, liver, lungs, kidneys, and blood were collected and weighed. Then, their radioactivities were determined using the above-mentioned automatic gamma counter. The radioactivity of each organ/tissue was evaluated as the percentage of injected dose per gram of organ/tissue (% ID/g), using the same injected dose activity as a standard.
# [2] = tested on: normal rat brain homogenates (control); assay: Binding and internalization in brain homogenate of normal rats; conditions: 37 °C, n = 7
# Description: (§2) An aliquot containing 2 × 10^6 C6 cells in supplemented DMEM-F12 culture medium (450 µL) was added to a vial and incubated with 10 nmol of the radiolabeled peptide at 37 °C with gentle agitation. The studies were evaluated at 1, 4 and 24 h (n = 7 for each time point). Then, the vials were centrifuged (604× g for 5 min). The radioactivities of the pellet and supernatant were separately evaluated using an automatic Wizard 3 2480 gamma counter (Perkin Elmer; Norwalk, CT, USA). The percentage of the bound fraction was calculated by Equation (1). (1) % bound fraction=Pellet radioactivity (cpm)/Pellet radioactivity (cpm)+supernatant radioactivity (cpm)×100
# (§3) In the sequence, a second radioactivity determination was performed. For that, pellets were resuspended using 0.5 mL of acid buffer (0.2 M acetic acid in 0.5 M NaCl solution; pH 2.8) and maintained at room temperature for 5 min to remove the radiolabeled molecule attached to the cell membrane surface. Then, the vials were centrifuged (1677× g for 5 min). The pellet and supernatant were separated and their radioactivities were measured using the above-mentioned automatic gamma counter. The percentage of the internalized fraction of radiopeptides was estimated based on the ratio between the activity contained in the precipitate and the supernatant and calculated by Equation (2):(2) % internalized fraction=Pellet radioactivity (cpm)/Pellet radioactivity (cpm)+supernatant radioactivity (cpm)×100
# (§4) Brain homogenates were prepared at the concentration of ~10 mg of wet tissue in 1000 µL of PBS (pH 7.4). Normal brain tissue (control) and tumor-bearing brain tissue (model) were used. A 25 µL aliquot (1.2 MBq/nmol) of each radiopeptide was added to 200 µL of freshly prepared homogenates (n = 7). The homogenates containing the radiolabeled peptides were incubated at 37 °C for 1, 4 and 24 h. Binding and internalization fractions were determined as described in Section 3.11.
# [3] = tested on: tumor-bearing glioblastoma brain homogenate (model); assay: Binding and internalization in brain homogenate of glioblastoma model rats; set-up: species or system rat; conditions: 37 °C, n = 7
# Description: as §2, §3, §1, §4
# [4] = normal rat brain homogenate, 24 h
# [5] = glioblastoma model brain homogenate, 24 h
substance,measurement,setting,value
[^99mTc]Tc(CO)3-GRGDHV,Binding to C6 cells (unblock),"C6 cells; 2.0 × 10^5 cells per well, 37 °C, 1.66 nmol [131I]I-GRGDYV or 8.88 nmol [99mTc]Tc(CO)3-GRGDHV, mean ± SD",0.61 ± 0.07%
same,Binding to C6 cells with excess of non-radiolabeled peptide (block),"C6 cells; 1000× excess of the respective non-radiolabeled peptide, 37 °C, mean ± SD",0.33 ± 0.04%
same,Reduction of binding by excess of non-radiolabeled peptide,"C6 cells; block versus unblock, C6 cells",~ 46%
same,Serum protein binding (SPB),serum proteins,~50% and 49.97 ± 0.01%
same,"Ex vivo biodistribution, Blood",[1]; 15 min after IV injection,10.28 ± 2.93 %ID/g
same,"Ex vivo biodistribution, Blood",[1]; 60 min after IV injection,8.91 ± 0.94 %ID/g
same,"Ex vivo biodistribution, Blood",[1]; 240 min after IV injection,10.32 ± 1.51 %ID/g
same,"Ex vivo biodistribution, Brain",[1]; 15 min after IV injection,0.71 ± 0.01 %ID/g
same,"Ex vivo biodistribution, Brain",[1]; 60 min after IV injection,0.81 ± 0.01 %ID/g
same,"Ex vivo biodistribution, Brain",[1]; 240 min after IV injection,1.57 ± 0.11 %ID/g
same,"Ex vivo biodistribution, Heart",[1]; 15 min after IV injection,5.40 ± 0.48 %ID/g
same,"Ex vivo biodistribution, Heart",[1]; 60 min after IV injection,5.14 ± 0.73 %ID/g
same,"Ex vivo biodistribution, Heart",[1]; 240 min after IV injection,4.80 ± 0.11 %ID/g
same,In vivo radiochemical stability,[1]; judged from ex vivo biodistribution (stomach uptake) in rats,better in vivo radiochemical stability
same,"Ex vivo biodistribution, Kidneys",[1]; 15 min after IV injection,58.33 ± 1.43 %ID/g
same,"Ex vivo biodistribution, Kidneys",[1]; 60 min after IV injection,58.99 ± 1.13 %ID/g
same,"Ex vivo biodistribution, Kidneys",[1]; 240 min after IV injection,40.44 ± 2.99 %ID/g
same,"Ex vivo biodistribution, Liver",[1]; 15 min after IV injection,7.04 ± 0.68 %ID/g
same,"Ex vivo biodistribution, Liver",[1]; 60 min after IV injection,8.29 ± 0.43 %ID/g
same,"Ex vivo biodistribution, Liver",[1]; 240 min after IV injection,11.62 ± 1.01 %ID/g
same,"Ex vivo biodistribution, Lungs",[1]; 15 min after IV injection,10.03 ± 2.56 %ID/g
same,"Ex vivo biodistribution, Lungs",[1]; 60 min after IV injection,7.83 ± 0.20 %ID/g
same,"Ex vivo biodistribution, Lungs",[1]; 240 min after IV injection,9.38 ± 1.89 %ID/g
same,"Ex vivo biodistribution, Spleen",[1]; 15 min after IV injection,3.74 ± 0.33 %ID/g
same,"Ex vivo biodistribution, Spleen",[1]; 60 min after IV injection,2.88 ± 0.32 %ID/g
same,"Ex vivo biodistribution, Spleen",[1]; 240 min after IV injection,4.12 ± 0.79 %ID/g
same,"Ex vivo biodistribution, Stomach",[1]; 15 min after IV injection,4.44 ± 1.25 %ID/g
same,"Ex vivo biodistribution, Stomach",[1]; 60 min after IV injection,7.28 ± 0.88 %ID/g
same,"Ex vivo biodistribution, Stomach",[1]; 240 min after IV injection,14.60 ± 2.07 %ID/g
same,Bound fraction,"[2]; normal rat brain homogenate (~10 mg/1000 µL PBS pH 7.4), 1 h",~ 50%
same,Internalized fraction,"[2]; normal rat brain homogenate, 1 h",~ 63%
same,Bound fraction,[2]; [4],~ 65%
same,Internalized fraction,[2]; [4],~ 87%
same,Bound fraction,"[3]; glioblastoma model brain homogenate (~10 mg/1000 µL PBS pH 7.4), 1 h",~ 50%
same,Internalized fraction,"[3]; glioblastoma model brain homogenate, 1 h",~ 79%
same,Bound fraction,[3]; [5],~ 78%
same,Internalized fraction,[3]; [5],~ 98%
